The values that follow come from ChEMBL document CHEMBL2069285, “Synthesis of N-(1-methyl-1H-indol-3-yl)methyleneamines and 3,3-diaryl-4-(1-methyl-1H-indol-3-yl)azetidin-2-ones as potential antileishmanial agents” (Bioorg Med Chem Lett, 2012).

≈ marks a conversion by molar mass, not a printed value.

This assay deals with Leishmania major. As to the kind of experiment: Antileishmanial activity against promastigotes of Leishmania major after 72 hrs by neubauer counting chamber analysis. In kind it is functional, organism-based.
In the case of `COc1ccc(/N=C/c2cn(C)c3ccccc23)cc1`, the IC50 (commonly the concentration that inhibits the measured activity by half) was 0.92 µg/mL (≈ 3.48 µM). Take `Cc1ccc(/N=C/c2cn(C)c3ccccc23)cc1`: the IC50 was 0.66 µg/mL (≈ 2.66 µM). For `Cc1ccc(N2C(=O)C(c3ccc(C)cc3)(c3ccc(C)cc3)C2c2cn(C)c3ccccc23)cc1` (stereo unspecified), the IC50 came to 0.6 µg/mL (≈ 1.27 µM). The value for `Cn1cc(C2N(c3ccc(Cl)cc3)C(=O)C2(c2ccccc2)c2ccccc2)c2ccccc21` (stereo unspecified) was 0.76 µg/mL (≈ 1.64 µM); that for `CCOc1ccc(N2C(=O)C(c3ccccc3)(c3ccccc3)C2c2cn(C)c3ccccc23)cc1` (stereo unspecified) was 0.56 µg/mL (≈ 1.18 µM).

In turn, `Cn1cc(/C=N/c2ccccc2)c2ccccc21` gave an IC50 of 0.76 µg/mL (≈ 3.24 µM). In turn, `Cn1cc(/C=N/c2ccc(Cl)cc2)c2ccccc21` came in with an IC50 of 0.58 µg/mL (≈ 2.16 µM). `Cc1ccc(C2(c3ccc(C)cc3)C(=O)N(c3ccc(Cl)cc3)C2c2cn(C)c3ccccc23)cc1` (stereo unspecified) returned an IC50 of 0.57 µg/mL (≈ 1.16 µM). For `Cn1cc(/C=N/Cc2ccccc2)c2ccccc21`, the IC50 was 0.71 µg/mL (≈ 2.86 µM). `Cc1ccccc1/N=C/c1cn(C)c2ccccc12` had an IC50 of 0.57 µg/mL (≈ 2.3 µM). Turning to `Cn1cc(/C=N/C(c2ccccc2)c2ccccc2)c2ccccc21`, the IC50 stood at 0.6 µg/mL (≈ 1.85 µM). In turn, `CCOc1ccc(N2C(=O)C(c3ccc(C)cc3)(c3ccc(C)cc3)C2c2cn(C)c3ccccc23)cc1` (stereo unspecified) gave an IC50 of 0.63 µg/mL (≈ 1.26 µM).

Take `Cn1cc(C2N(c3ccccc3)C(=O)C2(c2ccccc2)c2ccccc2)c2ccccc21` (stereo unspecified): the half-inhibitory concentration (IC50) was 0.6 µg/mL (≈ 1.4 µM). In turn, `Cc1ccc(C2(c3ccc(C)cc3)C(=O)N(c3ccccc3)C2c2cn(C)c3ccccc23)cc1` (stereo unspecified) returned an IC50 of 0.56 µg/mL (≈ 1.23 µM).

In the case of `Cc1ccc(N2C(=O)C(c3ccccc3)(c3ccccc3)C2c2cn(C)c3ccccc23)cc1` (stereo unspecified), the IC50 worked out at 0.59 µg/mL (≈ 1.33 µM). In turn, `CCOc1ccc(/N=C/c2cn(C)c3ccccc23)cc1` displayed an IC50 of 0.88 µg/mL (≈ 3.16 µM).
